“Also recorded” adds a separate entry of the source.
What was measured:
[1] = in vivo, po
[2] = Study of driving performance after gaboxadol administration (Example 3); assay type: in vivo, human (healthy male and female subjects); conditions: for effect on memory test, body sway, DSST or critical tracking: cognitive and psychomotor test battery before the driving test
Excerpt: The study participants included healthy, male and female subjects between 21 and 45 years of age, with a valid drivers license for at least 3 years.
Following a cognitive and psychomotor test battery, the driving test started at 9 am and lasted for one hour.

[3] = 111 individuals with depression; cited from earlier work
[4] = Study of daytime performance after sleep restriction (Example 4); assay type: in vivo, human (healthy adults)
Procedure: The study included a 2-night single-blind placebo run-in period, a 4-night double-blind treatment period during which sleep was restricted to 5 hours and a 2-night single-blind placebo run-out period. The study included healthy male and female volunteers 18 to <55 years of age.
2-night run-in period: All patients received placebo
2-night run-out period: All patients received placebo
The primary endpoints included observations based on the Multiple Sleep Latency Test (MSLT) and Slow Wave Sleep (SWS) assessment.

[5] = three-month efficacy study, insomnia; cited from earlier work

Compound: CCN(CC)CCN1C(=O)CN=C(c2ccccc2F)c2cc(Cl)ccc21 [Flurazepam]
- residual effect on primary endpoints Choice Reaction Time and Critical Flicker Fusion [1]: showed significant effect

Compound: CN1CCN(C(=O)OC2c3nccnc3C(=O)N2c2ccc(Cl)cn2)CC1 (centres unmarked) [zopiclone]
- effect on memory test, body sway, DSST or critical tracking [2]: had effect on several of these tests
- effect on driving performance, evening dose ([2]; evening dose before bed (gaboxadol 15 mg; zopiclone 7.5 mg), on-the-road driving test at 9 am): numerically greater effect

Compound: OC(c1ccccc1)(c1ccccc1)C1CCCCN1 (centres unmarked) [pipradrol]
- efficacy versus placebo in depression [3]: not superior to placebo

Compound: Cc1ccc(-c2nc3ccc(C)cn3c2CC(=O)N(C)C)cc1 [zolpidem]
- effect on driving performance, middle-of-the-night administration ([2]; dose at 4 am (gaboxadol 15 mg; zolpidem 10 mg), on-the-road driving test at 9 am): numerically greater effect

Compound: Oc1noc2c1CCNC2 [gaboxadol, 4,5,6,7-tetrahydroisoxazolo [5,4-c]pyridine-3-ol]
- tolerability ([2]; both the evening and the middle-of-the-night dose, 15 mg): well tolerated
- effect on memory test, body sway, DSST or critical tracking [2]: no effect
- daytime performance, effect sizes for the neurocognitive battery ([4]; gaboxadol 15 mg versus placebo): no strong evidence that gaboxadol improves daytime performance
- subjective daytime sleepiness versus placebo ([4]; gaboxadol 15 mg, Sleep Restriction period): trend towards less subjective daytime sleepiness
- amount of slow wave sleep (SWS) versus placebo ([4]; gaboxadol 15 mg, Sleep Restriction period, p<0.001, 1 sided): significantly more SWS; also recorded: increases the amount of slow wave sleep
- daytime sleepiness (MSLT) versus placebo ([4]; gaboxadol 15 mg, Sleep Restriction period, p=0.047, 1 sided): significantly less daytime sleepiness; also recorded: protective effect on reducing daytime sleepiness
- MSLT, average difference versus placebo (longer) ([4]; gaboxadol 15 mg, last two Sleep Restriction days): 2.01 min
- Karolinska Sleepiness Score (KSS), average difference versus placebo (less) ([4]; gaboxadol 15 mg, last two Sleep Restriction days, LDA model, p=0.058, 1 sided): 0.68
- SWS, average difference versus placebo (longer) ([4]; gaboxadol 15 mg, last two Sleep Restriction nights): 20.53 min
- residual effect on primary endpoints Choice Reaction Time and Critical Flicker Fusion [1]: did not show residual effect
- residual effects on other measurements (MSLT, DSST, Tracking, Memory tests, Body Sway, Leeds Sleep Evaluation Questionnaire) [1]: did not show any signs of residual effects
- effects in sleep onset and sleep maintenance [5]: failed to show significant effects

— patent US9682069B2, “Methods of treating Dravet syndrome” (Ovid Therapeutics Inc., priority 2015, dated 2017)
